Reference: patent US20150175556A1, “DIHYDROPYRIMIDIN-2(1H)-ONES AND DIHYDROPYRIMIDIN-2(1H)-THIONES AS INHIBITORS OF SODIUM IODIDE SYMPORTER” (COMMISSARIAT A L'ENERGIE ATOMIQUE ET AUX ENERGIES …, priority 2012, published 2015)
Like-named read-outs stand apart in the source and are kept apart here.

Assays:
[1] = molecular target: T1, sodium iodide symporter (NIS), iodide uptake in FRTL5 cells (Rattus norvegicus, UniProt Q63008); assay: Inhibition of iodide uptake in FRTL5 cells, non radioactive arsenic/cerium assay; type: cell-based; conditions: NaI 10 μM, 1 hour, 20°C, read-out: IC50 (μM), inhibitory activity against iodide uptake in FRTL5 cells
T1 construct: endogenous in cells; host or cells: FRTL5 (rat thyroid-derived cells)
T1 sequence (Q63008 1-618): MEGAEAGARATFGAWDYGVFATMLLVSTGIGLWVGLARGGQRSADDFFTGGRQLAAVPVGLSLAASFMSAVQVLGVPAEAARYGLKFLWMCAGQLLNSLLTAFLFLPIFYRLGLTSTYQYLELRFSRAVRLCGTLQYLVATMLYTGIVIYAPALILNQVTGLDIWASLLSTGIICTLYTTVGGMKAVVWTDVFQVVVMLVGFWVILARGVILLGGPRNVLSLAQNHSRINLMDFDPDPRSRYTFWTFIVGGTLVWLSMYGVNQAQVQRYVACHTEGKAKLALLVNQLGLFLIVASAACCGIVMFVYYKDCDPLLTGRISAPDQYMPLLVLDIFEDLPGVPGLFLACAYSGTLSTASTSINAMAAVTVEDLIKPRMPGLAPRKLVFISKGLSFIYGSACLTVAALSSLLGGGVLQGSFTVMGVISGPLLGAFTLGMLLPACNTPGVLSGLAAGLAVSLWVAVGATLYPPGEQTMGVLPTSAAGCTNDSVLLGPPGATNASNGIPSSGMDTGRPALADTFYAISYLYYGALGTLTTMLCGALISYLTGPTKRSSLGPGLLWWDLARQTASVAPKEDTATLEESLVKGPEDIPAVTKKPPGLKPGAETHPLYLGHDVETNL
Method: Some of the synthesized compounds were evaluated for their ability to inhibit iodide entrapment in FRTL5 cells. The IC50 values were measured in at least […] independent experiments.
The biological activity of each compound was determined in FRTL5 cells, using a non radioactive arsenic/cerium assay as described in F. Waltz et al., Anal. Biochem., 2012, 396, 91-95. Compound potency was expressed as IC50, the concentration of compound necessary to achieve 50% inhibition of iodide uptake. Briefly, to FRTL5 cells at 70-90% confluence was added compound (200 μM, 10 μM, 0.5 μM, 25 nM, 1.2 nM, 60 pM, […], and 0.15 pM final), followed by NaI (10 μM final). After 1 hour incubation at 20±1° C., supernatant was removed and the cells were immediately assayed for iodide content using the modified As/Ce Sandell-Kolthoff reaction. NaClO4 was tested in each microplate as assay controls. The IC50 values of all compounds were measured least thrice independently.
Stock solutions of tested compounds were prepared in DMSO (20 mM) and that of NaClO4 in water (20 mM). These stock solutions were stored at 4° C. for up to 2 months. Sample dilutions: the day of the assay, a daughter plate (clear flat-bottomed 96-well polystyrene microplates, Costar 9017) was prepared from 20 mM stock solutions. NaClO4 (column 2) and DHPM samples (columns 4 to 11) were diluted at 10× the final concentration in uptake buffer.
FRTL5 cells were cultured as described in F. S. Ambesi-Impiombato et al., Proc. Natl. Acad. Sci. USA, 1980, 77, 3455-3459. Briefly, FRTL5 cells were cultured in Coon's modified F12 medium supplemented with 5% heat-inactivated fetal bovine serum (Invitrogen), 2 mM L-glutamine, 100 U/mL penicillin, 0.1 mg/mL streptomycin, 10 μg/mL insulin, 10 nM hydrocortisone, 10 ng/mL Gly-His-Lys acetate, 1 mU/mL TSH, 5 μg/mL transferrin at 37° C. and 5% CO2. For iodide uptake assays, 200 μL of FRTL5 cells with density of 250,000 cells/mL were dispensed in each well of clear flat-bottomed 96-well polystyrene microplates (Costar 3628) using the Multidrop 384 (ThermoFisher Scientific), and further cultured until confluence reached 80-90% (3-4 days).
The culture medium of FRTL5 monolayer cells at 80-90% confluence was replaced by uptake buffer (20° C.) via continuous aspiration/dispense cycle (600 μL) using a 96-needle head plate washer PW 384 (Tecan). The 96-needle head was set to a vertical position such that 80 μL of fresh uptake buffer remained in each well at the end of the cycle. The samples (10 μL each) from the daughter plate were transferred all at once to the assay plate using the 96-tip head pipettor Liquidator 96 (Mettler Toledo). Immediately after, 10 μL of a NaI solution at 100 μM was added to each well of the assay plate using the Liquidator 96. The assay plate was left to stand in the dark at 20±1° C. for 60 min. The assay plate was then washed with cold (4° C.) uptake buffer using the PW 384 plate washer and residual supernatant was immediately discarded by inverting the assay plate on absorbent paper.
Sodium iodide standards (S1 to S7) and water (S0) were distributed in duplicate (100 μL each) in the first and last column of the assay plate. Water (100 μL) was added to the columns with the Multidrop 384. 100 μL of the ammonium cerium (IV) sulfate solution (10.5 mM) was distributed into the columns, followed by 100 μL of the sodium arsenite (III) solution (24 mM) using the Multidrop 384. The assay plate was left to stand at 20±1° C. for 30 min. The absorbance at 420 nm (Abs420) was immediately recorded on a SpectraMax Plus 384 (Molecular Devices). A calibration curve was prepared for each plate by plotting the logarithmic conversion of the means of Abs420 (n=2) vs iodide standard concentrations (S0 to S7). The iodide concentrations in the samples were determined after linear regression of the calibration curve.

[2] = Table 5, variations at Y, R1, R3, R4, R5, averaged from two to four independent experiments
[3] = Table 1, variations at R1, averaged from three or four independent experiments
[4] = Table 4, variations at X, R3, R4, averaged from three or four independent experiments
[5] = Table 3, variations at R2, averaged from three or four independent experiments
[6] = Table 2, variations at R5, averaged from three or four independent experiments

Molecule COc1ccc(COC(=O)C2=C(C)N(C)C(=O)N(C)C2c2ccco2)cc1OC (stereo not shown) [Compound 58, 3,4-Dimethoxybenzyl 4-(furan-2-yl)-1,3,6-trimethyl-2-oxo-1,2,3,4-tetrahydropyrimidine-5-carboxylate] has an IC50 [1, 2] of 0.065 µM and a melting point of 122 to 124 °C.

With CC1=C(C(=O)OCc2ccc3c(c2)OCO3)C(c2ccco2)NC(=O)N1 (stereo not shown) [Compound 59, benzo[d][1,3]dioxol-5-ylmethyl 4-(furan-2-yl)-6-methyl-2-oxo-1,2,3,4-tetrahydropyrimidine-5-carboxylate] the IC50 [1, 2] was 0.004 µM and the melting point was 169 to 171 °C.

COc1ccc(COC(=O)C2=C(C)NC(=O)NC2c2cccc(Br)c2)cc1 (stereo not shown) [Compound 21, 4-Methoxybenzyl 4-(3-bromophenyl)-6-methyl-2-oxo-1,2,3,4-tetrahydropyrimidine-5-carboxylate] showed an IC50 [1, 3] of 0.35 µM and a melting point of 164 to 166 °C.

For COc1ccc(COC(=O)C2=C(C)N(C)C(=O)NC2c2ccccc2)cc1 (stereo not shown) [Compound 50, 4-Methoxybenzyl 1,6-dimethyl-2-oxo-4-phenyl-1,2,3,4-tetrahydropyrimidine-5-carboxylate], the IC50 [1, 4] was 0.075 µM and the melting point was 134 to 136 °C.

With COc1ccc(COC(=O)C2=C(C)NC(=O)NC2c2ccsc2)cc1 (stereo not shown) [Compound 31, 4-Methoxybenzyl 6-methyl-2-oxo-4-(thiophen-3-yl)-1,2,3,4-tetrahydropyrimidine-5-carboxylate] the IC50 [1, 3] was 0.04 µM and the melting point was 156 to 158 °C.

With CCC1=C(C(=O)OCc2ccc(OC)cc2)C(c2ccccc2)NC(=O)N1 (stereo not shown) [Compound 40, 4-Methoxybenzyl 6-ethyl-2-oxo-4-phenyl-1,2,3,4-tetrahydropyrimidine-5-carboxylate] the IC50 [1, 5] was 0.07 µM and the melting point was 62 to 65 °C.

Molecule COc1ccc(COC(=O)C2=C(C)NC(=O)NC2c2ccco2)cc1 (stereo not shown) [Compound 27, 4-methoxybenzyl 4-(furan-2-yl)-6-methyl-2-oxo-1,2,3,4-tetrahydropyrimidine-5-carboxylate] has an IC50 [1, 3] of 0.0032 µM and a melting point of 158 to 159 °C.

Work on COc1ccc(COC(=O)C2=C(C)NC(=O)NC2c2cccc(Cl)c2)cc1 (stereo not shown) [Compound 22, 4-Methoxybenzyl 4-(3-chlorophenyl)-6-methyl-2-oxo-1,2,3,4-tetrahydropyrimidine-5-carboxylate] yielded an IC50 [1, 3] of 0.1 µM and a melting point of 180 to 181 °C.

CC1=C(C(=O)OCc2ccccc2Cl)C(c2ccccc2)NC(=O)N1 (stereo not shown) [Compound 33, 2-Chlorobenzyl 6-methyl-2-oxo-4-phenyl-1,2,3,4-tetrahydropyrimidine-5-carboxylate] showed an IC50 [1, 6] of 0.35 µM and a melting point of 193 to 195 °C.

COc1ccc(COC(=O)C2=C(C)NC(=O)NC2C2CC2)cc1 (stereo not shown) [Compound 26, 4-Methoxybenzyl 4-cyclopropyl-6-methyl-2-oxo-1,2,3,4-tetrahydropyrimidine-5-carboxylate] showed an IC50 [1, 3] of 0.75 µM and a melting point of 158 to 160 °C.

For COc1ccc(COC(=O)C2=C(CNC(=O)c3ccccc3)NC(=O)NC2c2ccccc2)cc1 (stereo not shown) [Compound 47, 4-Methoxybenzyl 2-oxo-6-(benzamidomethyl)-4-phenyl-1,2,3,4-tetrahydropyrimidine-5-carboxylate], the IC50 [1, 5] was 1.2 µM and the melting point was 213 to 216 °C.

COc1ccc(COC(=O)C2=C(C)NC(=O)NC2c2ccccc2F)cc1 (stereo not shown) [Compound 23, 4-Methoxybenzyl 4-(2-fluorophenyl)-6-methyl-2-oxo-1,2,3,4-tetrahydropyrimidine-5-carboxylate] gave an IC50 [1, 3] of 0.065 µM and a melting point of 181 to 183 °C.

Molecule COc1ccc(COC(=O)C2=C(Cc3ccccc3)NC(=O)NC2c2ccccc2)cc1 (stereo not shown) [Compound 45, 4-Methoxybenzyl 6-benzyl-2-oxo-4-phenyl-1,2,3,4-tetrahydropyrimidine-5-carboxylate] has an IC50 [1, 5] of 0.25 µM and a melting point of 140 to 142 °C.

Work on COc1ccc(COC(=O)C2=C(C)NC(=S)NC2c2ccccc2)cc1 (stereo not shown) [Compound 52, 4-methoxybenzyl 6-methyl-4-phenyl-2-thioxo-1,2,3,4-tetrahydropyrimidine-5-carboxylate] yielded an IC50 [1, 4] of 0.095 µM and a melting point of 174 to 175 °C.

For COc1ccc(COC(=O)C2=C(c3cccs3)NC(=O)NC2c2ccccc2)cc1 (stereo not shown) [Compound 48, 4-Methoxybenzyl 2-oxo-4-phenyl-6-(thiophen-2-yl)-1,2,3,4-tetrahydropyrimidine-5-carboxylate], the IC50 [1, 5] was 0.55 µM and the melting point was 78 to 80 °C.

COc1ccc(COC(=O)C2=C(C)NC(=O)NC2c2ccc(F)cc2)cc1 (stereo not shown) [Compound 25, 4-Methoxybenzyl 4-(4-fluorophenyl)-6-methyl-2-oxo-1,2,3,4-tetrahydropyrimidine-5-carboxylate] showed an IC50 [1, 3] of 0.15 µM and a melting point of 172 to 175 °C.

With COc1ccc(COC(=O)C2=C(C)NC(=O)NC2c2cccc(F)c2)cc1 (stereo not shown) [Compound 24, 4-Methoxybenzyl 4-(3-fluorophenyl)-6-methyl-2-oxo-1,2,3,4-tetrahydropyrimidine-5-carboxylate] the IC50 [1, 3] was 0.075 µM and the melting point was 173 to 174 °C.

For CC1=C(C(=O)OCc2ccccc2)C(c2ccccc2)NC(=O)N1 (stereo not shown) [Compound 32, Benzyl 6-methyl-2-oxo-4-phenyl-1,2,3,4-tetrahydropyrimidine-5-carboxylate], the IC50 [1, 6] was 0.19 µM and the melting point was 174 to 175 °C.

Molecule CC1=C(C(=O)OCc2ccc(F)cc2)C(c2ccccc2)NC(=O)N1 (stereo not shown) [Compound 35, 4-Fluorobenzyl 6-methyl-2-oxo-4-phenyl-1,2,3,4-tetrahydropyrimidine-5-carboxylate] has an IC50 [1, 6] of 0.2 µM and a melting point of 196 to 197 °C.

Work on COc1ccc(COC(=O)C2=C(C)NC(=O)NC2c2cccs2)cc1 (stereo not shown) [Compound 30, 4-Methoxybenzyl 4-(thiophen-2-yl)-6-methyl-2-oxo-1,2,3,4-tetrahydropyrimidine-5-carboxylate] yielded an IC50 [1, 3] of 0.05 µM and a melting point of 152 to 154 °C.
